Results published in patent US11484567B2, “Use of immune suppressive domains as medicaments” (iSD Immunotech ApS, priority 2013, dated 2022).

Experiments:
BMDCs = test: Cytokine release (type I IFN bioassay) from LPS-treated BMDCs pretreated with peptide; type: cell-based
STING [1] = biological target: T1, STING (Homo sapiens, UniProt Q86WV6); test: Pulldown of HA-tagged STING C-terminal domain with biotinylated INF ISD peptide and streptavidin coated beads, immunoblot; type: binding
T1 construct: the C-terminal domain of STING was expressed with a HA-tag in HEK293 cells; expressed in transfected cells; host or cells: HEK293
T1 sequence (Q86WV6 162-379): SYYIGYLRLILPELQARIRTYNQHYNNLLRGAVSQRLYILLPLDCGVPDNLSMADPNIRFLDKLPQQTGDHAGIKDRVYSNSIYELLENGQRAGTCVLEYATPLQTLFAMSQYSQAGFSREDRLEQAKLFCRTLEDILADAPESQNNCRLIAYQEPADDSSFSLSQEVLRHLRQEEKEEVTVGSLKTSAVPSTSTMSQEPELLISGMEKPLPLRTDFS

STING [2] = test: as above; type: binding

Sequence: GLFGAIAGFIENGWEGCGGEKEKEK [INF ISD peptide]
- amounts of cytokines released by cells treated with LPS (FIG. 9) (BMDCs; BMDCs treated with LPS for 16 hours, pretreated with peptide, supernatants analyzed for type I IFN using bioassay): significantly lower amounts of cytokines
- release of cytokines including pro-inflammatory cytokines such as TNFalpha and IL-6 (BMDCs; pretreatment of cells with peptide, LPS (Example 3)): decrease in the release of cytokines
- pulldown of STING deletion mutant DN5 (162-N) (STING [1]): readily pulled down
- pulldown of wt STING (STING [2]): readily pulled down
